Results from PMC6435570, “Zafirlukast Is a Dual Modulator of Human Soluble Epoxide Hydrolase and Peroxisome Proliferator-Activated Receptor γ” (Frontiers in Pharmacology, 2019).
Values joined by “and” are separate entries in the source; they are usually repeats but may differ in a detail not shown here. Equal entries are not always repeated.

What was measured:
[1] = tested on: PPARγ target genes (LPL, GLUT-4, FABP-4, adiponectin) in 3T3-L1 adipocytes; experiment: PPARγ target gene mRNA expression in differentiated 3T3-L1 adipocytes (qRT-PCR); type: cell-based, murine; conditions: after 14 days; for mRNA expression of PPARγ target genes (LPL, GLUT-4, FABP-4, adiponectin): normalized to cells with activation cocktail only
Description: 3T3-L1 cells were differentiated into adipocytes for 14 days according to the protocol of [Zebisch et al. (2012)]. For this, cells were seeded in 6-well plates ([…]) and differentiation was induced after 48 h by addition of a differentiation cocktail containing 1 μg/mL insulin, 0.25 μM dexamethasone and 0.5 mM isobutylmethylxanthine (IBMX) in DMEM supplemented with 10% FCS and 1% PS. […] After 2 days, medium was replaced by DMEM supplemented with 10% FCS, 1% PS and 1 μg/mL insulin for 2 more days. Afterwards, cells were kept for lipid droplet accumulation in DMEM containing 10% FCS and 1% PS until day 15. Media were replaced every other day.
3T3-L1 cells were lysed using TRIzol® reagent (Ambion Life Technologies, Carlsbad, CA, United States). Subsequently, mRNA was isolated following the manufacturers protocol. DNA contaminations were digested using DNAse (DNase I, RNase-free Kit; Thermo Scientific, Waltham, MA, United States) and mRNA concentrations were determined using a NanoDrop^TM2000 spectrophotometer (Thermo Scientific, Waltham, MA, United States). Afterwards, reverse transcription was performed using the High Capacity RNA-to-cDNA Kit (Applied Biosystems, Foster City, CA, United States) following the manufacturers protocol. […] Relative mRNA expression was determined by the 2^-ΔΔCt method normalized to murine non-POU domain-containing octamer binding protein (Nono). All samples were measured in triplicates and experiments were repeated independently at least three times.
To gain further insight in PPARγ activation after compound treatment, mature 3T3-L1 adipocytes were harvested after 14 days and mRNA was isolated, reverse transcribed and subjected to quantitative RT-PCR. mRNA expression of the PPARγ target genes lipoprotein lipase (LPL), the glucose transporter 4 (GLUT-4), the fatty acid binding protein 4 (FABP-4) and adiponectin was monitored by quantitative PCR (Figure 3A–D and Supplementary Figure S1). […]

[2] = biological target: T1, PPARγ-LBD / CBP-derived peptide (Homo sapiens, UniProt P37231); experiment: PPARγ coactivator (CBP) recruitment assay, HT-FRET; type: biochemical; conditions: for Induction of CBP recruitment by the compound itself: absence of rosiglitazone
T1 construct: 12 nM recombinant PPARγ-LBD fused to N-terminal GFP as FRET acceptor
T1 sequence (P37231 238-503 limits assumed): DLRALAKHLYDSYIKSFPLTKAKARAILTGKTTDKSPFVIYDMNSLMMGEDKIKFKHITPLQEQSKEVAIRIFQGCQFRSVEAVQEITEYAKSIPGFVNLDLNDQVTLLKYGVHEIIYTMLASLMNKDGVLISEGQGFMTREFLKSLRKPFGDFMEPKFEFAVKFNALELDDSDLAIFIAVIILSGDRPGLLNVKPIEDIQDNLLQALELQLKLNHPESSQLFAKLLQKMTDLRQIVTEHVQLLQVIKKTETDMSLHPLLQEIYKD
Text: Recruitment of coactivator-derived peptides to the PPARγ-LBD was studied by homogeneous time-resolved fluorescence resonance energy transfer (HT-FRET). Terbium cryptate as streptavidin conjugate (Cisbio assays, France) was used as FRET donor. Peptides derived from the coactivator cyclic AMP response element-binding protein (CREB)-binding protein (CBP) [biotin-[…]] encompassing the coactivator consensus motif LxxLL and N-terminal biotin for stable coupling to streptavidin were purchased from Eurogentec GmbH (Cologne, Germany). Solutions containing 12 nM recombinant PPARγ-LBD fused to N-terminal GFP as FRET acceptor and 12 nM FRET donor complex with the CBP-derived peptide as well as 1% DMSO with test compound at varying concentrations or DMSO alone were prepared in HEPES buffer [25 mM HEPES pH 7.5 adjusted with KOH, 150 mM KF, 5% (w/v) glycerol, 0.1% (w/v) CHAPS, 5 mM DTT]. After 2 h incubation at RT, the fluorescence intensities (FI) at 520 nm (acceptor) and 620 nm (donor reference) after excitation at 340 nm were recorded on a Tecan Infinite F200 (Tecan Group Ltd., Männedorf, Switzerland). FI520nm was divided by FI620nm and multiplied with 10,000 giving a dimensionless HTRF signal. Recruitment of coactivator-derived peptides to the PPARγ-LBD was validated with increasing concentrations of rosiglitazone. Recruitment of CBP was referenced to recruitment in response to 1 μM rosiglitazone (∼EC80) and reported as relative coactivator recruitment.
We induced this post-translational modification by short-term treatment of the differentiated cells with the cytokine TNFα, generating a pro-inflammatory milieu. […] For this, we used an assay system in which the recruitment of the fluorescence-tagged PPARγ coactivator CBP to the PPARγ-LBD was assessed by time-resolved FRET technique in presence and absence of rosiglitazone.

sEH (HEP-G2) = biological target: T2, sEH (HEP-G2) (Homo sapiens, UniProt P34913); experiment: sEH activity in HEP-G2 cell lysates (14(15)-EET-d11 to DHET-d11, LC-MS/MS); type: biochemical; conditions: HEP-G2 cell homogenate, (±)14(15)-EET-d11 substrate, DHET formation by LC-MS/MS
T2 construct: 1 μg of total cell homogenate diluted in 100 μl of PBS; endogenous in cells; host or cells: HEP-G2
T2 sequence (P34913 1-555): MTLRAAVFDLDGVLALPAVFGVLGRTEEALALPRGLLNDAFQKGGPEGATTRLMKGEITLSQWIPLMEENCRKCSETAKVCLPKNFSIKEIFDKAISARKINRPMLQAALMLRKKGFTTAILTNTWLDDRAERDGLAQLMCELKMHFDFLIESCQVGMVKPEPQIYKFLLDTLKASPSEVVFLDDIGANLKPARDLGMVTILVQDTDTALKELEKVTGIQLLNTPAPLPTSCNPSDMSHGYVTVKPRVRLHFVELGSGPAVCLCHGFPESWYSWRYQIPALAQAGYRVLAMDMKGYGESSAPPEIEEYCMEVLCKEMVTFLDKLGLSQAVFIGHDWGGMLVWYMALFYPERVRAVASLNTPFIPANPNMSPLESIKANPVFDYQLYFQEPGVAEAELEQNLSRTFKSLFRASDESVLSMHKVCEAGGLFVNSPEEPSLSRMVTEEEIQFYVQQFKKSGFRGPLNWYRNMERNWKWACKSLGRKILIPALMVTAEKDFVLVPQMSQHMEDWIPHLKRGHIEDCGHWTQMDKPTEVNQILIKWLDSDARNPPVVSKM
Description: Quantification of cellular sEH metabolic activity was performed as described by [Zha et al. (2014)]. For this, HEP-G2 cells were harvested, washed twice with PBS and sonicated in PBS for disruption of cell integrity. Then, 1 μg of total cell homogenate diluted in 100 μl of PBS containing 0.1 mg/ml BSA was incubated with the compounds or vehicle for 15 min at 37°C. After this, 25 ng (±)14(15)-EET-d11 (Cayman Chemical, Ann Arbor, MI, United States) were added per sample and the incubation was continued for additional 10 min at 37°C. A blank was performed using PBS (containing 0,1 mg/mL BSA). The reactions were stopped by adding 100 μL of ice cold methanol. After centrifugation (2000 rpm, 4°C, 5 min), supernatants were analyzed by LC-MS/MS and the amounts of (±)14(15)-EET-d11 and the corresponding (±)14(15)-DHET-d11 were determined.
14(15)-EET-d11 and 14(15)-DHET-d11 content of the extracted samples were analyzed employing liquid chromatography tandem mass spectroscopy (LC-MS/MS). The LC/MS-MS system comprised an API 5500 QTrap (Sciex, Darmstadt, Germany), equipped with a Turbo-V-source operating in negative ESI mode, an Agilent 1200 binary HPLC pump and degasser (Agilent, Waldbronn, Germany) and an HTC Pal autosampler (Chromtech, Idstein, Germany) fitted with a 25 μL LEAP syringe (Axel Semrau GmbH, Sprockhövel, Germany). High purity nitrogen for the mass spectrometer was produced by a NGM 22-LC/MS nitrogen generator (cmc Instruments, Eschborn, Germany). All substances were obtained from Cayman Chemical, Ann Arbor, MI, United States. Stock solutions with 2,500 ng/mL of both analytes were prepared in methanol. Working standards were obtained by further dilution with a concentration range of 0.1–250 ng/mL for 14(15)-EET-d11 and 14(15)-DHET-d11. Sample extraction was performed with liquid–liquid-extraction. Therefore, 150 μL of matrix homogenates were gently mixed with 20 μL of internal standard [14(15)-EET and 14(15)-DHET all with a concentration of 100 ng/ml in methanol], and were extracted twice with 600 μL of ethyl acetate. Samples for standard curve and quality control were prepared similarly, instead of 150 μL of matrix homogenates, 150 μL PBS were added. Further 20 μL methanol, 20 μL working standard and 20 μL internal standard were added. The organic phase was removed at a temperature of 45°C under a gentle stream of nitrogen. The residues were reconstituted with 50 μL of methanol/water/(50:50, v/v), centrifuged for 2 min at 10,000 g and then transferred to glass vials (Macherey-Nagel, Düren, Germany) prior to injection into the LC-MS/MS system. For the chromatographic separation a Gemini NX C18 column and pre-column were used (150 mm × 2 mm i.d., 5 μm particle size and 110 Å pore size from Phenomenex, Aschaffenburg, Germany). A linear gradient was employed at a flow rate of 0.5 mL/min mobile phase with a total run time of 17.5 min. Mobile phase was A water/ammonia (100:0.05, v/v) and B acetonitrile/ammonia (100:0.05, v/v). The gradient started from 85% A to 10% within 12 min. This was held for 1 min at 10% A. Within 0.5 min the mobile phase shifted back to 85% A and was held for 3.5 min to equilibrate the column for the next sample. The injection volume of samples was 20 μL. Quantification was performed with Analyst Software V 1.5.1 (Sciex, Darmstadt, Germany) employing the internal standard method (isotope- dilution mass spectrometry). Ratios of analyte peak area and internal standard area (y-axis) were plotted against concentration (x-axis) and calibration curves were calculated by least square regression with 1/concentration^2 weighting.

Row | IC50 (sEH (HEP-G2)) | IC50 ([2]; rosiglitazone 1 μM, after 2 h, read-out: IC50 for antagonism of rosiglitazone induced CBP recruitment) | SMILES | mRNA expression of PPARγ target genes (LPL, GLUT-4, FABP-4, adiponectin) [1] | Induction of CBP recruitment by the compound itself [2] | Antagonism of rosiglitazone induced CBP recruitment ([2]; presence of rosiglitazone (1 μM)) | Adiponectin mRNA level ([1]; compared to the other target genes)
1 | 1900 nM and 1950 nM |  | CC(C)(O)c1ccccc1CC[C@@H](SCC1(CC(=O)O)CC1)c1cccc(/C=C/c2ccc3ccc(Cl)cc3n2)c1 [Montelukast, montelukast] | did not influence the expression | did not induce CBP recruitment itself in concentrations up to 20 μM | weakly antagonized the rosiglitazone induced CBP recruitment in concentrations above 3 μM | 
2 | 800 nM and 820 nM | 4.7 µM | COc1cc(C(=O)NS(=O)(=O)c2ccccc2C)ccc1Cc1cn(C)c2ccc(NC(=O)OC3CCCC3)cc12 [Zafirlukast, zafirlukast] | dose-dependently induced target gene expression although to a lesser extent compared to rosiglitazone | did not induce CBP recruitment itself |  | elevated adiponectin levels more effectively compared to the other target genes
